# Results reported in patent US20260115331A1, “PET IMAGING OF BACTERIAL INFECTION WITH A PET PROBE” (Mayo Foundation for Medical Education and Research, priority 2022, published 2026).
# Columns and labels:
# [1] = PET/CT image analysis (SUV) in normal rat model; format: in vivo, rats; conditions: for SUV (Average ± SD), Normal Tibia: Normal group
# Procedure: The PET probe [^68Ga]Ga-H3P2O8 was evaluated in methicillin-resistant S. aureus (MRSA) foreign-body osteomyelitis in the left tibia with a stainless steel Kirschner wire (K-wire) implant in male Wister rats, following a previously established protocol [Ref. 17]. Briefly, a 1 cm incision was made on the medial tibia and the bone exposed. A 1.5 mm hole was drilled, 0.01 mL of arachidonic acid (a sclerosing agent) and 0.05 mL of a suspension containing MRSA DRL-6169 at 10^8 cfu/mL was injected into the bone. A 5 mm threaded stainless-steel K-wire was inserted. The hole was closed with dental gypsum and the site closed. After implantation, the muscle and fascia were closed with 3-0 vicryl using simple interrupted sutures. The skin was closed with sterile wound clips and VetBond. The wound was sprayed with Aluspray and Chew Guard. After 7 days of implantation of wire, the animal was put on iron-deficient diet for 7 days and on the day of imaging, the animals were fasted for 4 hours prior to the injection of the PET probe. [^68Ga]Ga-H3P2O8 (32.81±6.28 MBq, n=18) were injected into the rat model via tail vein injection. The rat model was either a normal rat model or an osteomyelitis foreign body rat model or an inflamed foreign body rat model. PET/CT images were acquired at 15 minutes, 30 minutes, 60 minutes, and 120 minutes post-injection using Siemens Inveon MicroPET/CT Scanner (see FIGS. 17, 18, and Table 2).
# (§1) The acquired PET images were visualized and analyzed for quantifying standardized uptake value (SUV) using image analysis software—MIM 7 software and PMOD. Following final imaging at 120 minutes post-injection, the animal was euthanized, and major organs and infected and inflamed tibia were extracted for gamma counting for ex-vivo biodistribution analysis (see FIG. 22). At the end of last imaging session, rats were euthanized by cardiectomy, and the operated tibia with K-wire or contralateral tibia were aseptically removed. Following removal, tibias were weighed, and Ga-68 radioactivity was counted in 2480 Wizard2 automatic gamma counter for ex-vivo biodistribution assessment. The tibias were then frozen to −80° C. The frozen tibia from each animal was crushed aseptically using a bone pulverizer chilled at −80° C. The crushed tibia without K wire was weighed and vortexed in 1 mL sterile saline. The K wire was also vortexed in 1.0 mL sterile saline separately. The vortexed tibia and K-wire saline suspension were sonicated for 5 minutes. After sonication, 1:10 serial dilutions were prepared in saline and 0.1 mL of each dilution was plated in Trypticase Soy Agar plates with 5% Sheep Blood (TSA II). After 24 hours of incubation at 37° C., the bacterial cultures in tibia suspension and K-wire suspension were quantified. In the 2-week-old osteomyelitis model used in the study, the infected tibia contained 7.00±0.19 log10 cfu/g tibia (n=10) and 5.41±0.40 log10 cfu/K-wire (n=10).
# [2] = tested on: Pseudomonas aeruginosa (P. aeruginosa); assay: Ex vivo biodistribution in osteomyelitis foreign body rat model with P. aeruginosa infection vs inflammation model; parameters: species or system rats; conditions: 120 minutes post-injection, comparable SUVs except bladder and feces (FIG. 35)
# Procedure: as §1, with “In the 2-week-old osteomyelitis model used in the study, the infected tibia contained 7.00±0.19 log10 cfu/g tibia (n=10) and 5.41±0.40 log10 cfu/K-wire (n=10).” left out
structure (smiles),measurement,setting,value
"O=P(O)(O)[O][Ga]1[O]P(=O)(O)[O]1 [[^68Ga]Ga-H3P2O8, [^68Ga]Ga-hydrogen bisphosphate]","SUV (Average ± SD), Normal Tibia","[1]; n = 4, 15 min post-injection",0.76 ± 0.03 SUV
same,"SUV (Average ± SD), Normal Tibia","[1]; n = 4, 30 min post-injection",0.76 ± 0.09 SUV
same,"SUV (Average ± SD), Normal Tibia","[1]; n = 4, 60 min post-injection",0.80 ± 0.09 SUV
same,"SUV (Average ± SD), Normal Tibia","[1]; n = 4, 120 min post-injection",0.89 ± 0.16 SUV
same,"SUV (Average ± SD), Muscle in Normal group","[1]; n = 4, 15 min post-injection",0.35 ± 0.10 SUV
same,"SUV (Average ± SD), Muscle in Normal group","[1]; n = 4, 30 min post-injection",0.50 ± 0.12 SUV
same,"SUV (Average ± SD), Muscle in Normal group","[1]; n = 4, 60 min post-injection",0.49 ± 0.10 SUV
same,"SUV (Average ± SD), Muscle in Normal group","[1]; n = 4, 120 min post-injection",0.48 ± 0.09 SUV
same,distribution in organs/excrement of infected model compared with inflammation model,[2],similar
